Source: patent US20260097017A1, “TASIPIMIDINE AND CYP2D6 INHIBITOR COMBINATION TREATMENT” (ORION CORPORATION, priority 2022, published 2026)
Like-named read-outs stand apart in the source and are kept apart here.

Experiments:
[1] = background statement; cited from earlier work
CYP1A1 = target: T1, CYP1A1 (Homo sapiens, UniProt P04798); experiment: Recombinant human CYP incubations (enzyme identification); type: in vitro ADME
T1 construct: purchased; host or cells: baculovirus-transfected insect cells
T1 sequence (P04798 1-512): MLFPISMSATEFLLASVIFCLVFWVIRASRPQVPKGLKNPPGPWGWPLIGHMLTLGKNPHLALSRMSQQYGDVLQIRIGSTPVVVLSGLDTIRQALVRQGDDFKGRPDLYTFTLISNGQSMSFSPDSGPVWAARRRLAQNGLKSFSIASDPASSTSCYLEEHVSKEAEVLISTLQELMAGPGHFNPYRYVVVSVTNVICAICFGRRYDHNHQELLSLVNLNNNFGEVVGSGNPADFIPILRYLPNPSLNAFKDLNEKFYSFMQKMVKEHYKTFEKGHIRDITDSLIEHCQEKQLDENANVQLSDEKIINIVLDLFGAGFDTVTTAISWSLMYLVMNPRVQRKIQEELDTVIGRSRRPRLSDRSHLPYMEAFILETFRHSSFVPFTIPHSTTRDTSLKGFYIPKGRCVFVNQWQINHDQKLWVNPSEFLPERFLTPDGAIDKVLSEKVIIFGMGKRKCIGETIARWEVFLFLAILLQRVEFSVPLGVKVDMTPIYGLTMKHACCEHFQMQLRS
Description: (§1) The objective of these studies was to identify enzymes involved in the metabolism of tasipimidine in human. The test substance tasipimidine and the reference compounds for main tasipimidine metabolites 1-(4,5-dihydro-1H-imidazol-2-yl) isochroman-5-ol (metabolite 1), 2-(5-methoxyisochroman-1-yl)-1H-imidazole (metabolite 2), and 1-(1H-imidazol-2-yl) isochroman-5-ol (metabolite 3) were supplied by Orion Pharma. To further support the findings of recombinant enzyme incubations tasipimidine was incubated with human hepatocytes with two enzyme inhibitors, i.e. 1-aminobenzotriazole (ABT, non-selective CYP inhibitor), and quinidine (CYP2D6 inhibitor).
(§2) The analysis for disappearance of tasipimidine and the identification of the formed metabolites were carried out by using a high-resolution liquid chromatographic-mass spectrometer supported by accurate masses (UPLC-HRMS). Firstly, metabolic stability of tasipimidine in different in vitro matrices was determined by monitoring the disappearance of the parent compound as a function of time. Moreover, structures of the formed metabolites were characterized from their respective product ion spectra. The synthetized reference compounds of the metabolites were used to confirm the identification of those specific metabolites.

CYP1A2 = target: T2, CYP1A2 (Homo sapiens, UniProt P05177); experiment: as above; type: in vitro ADME
T2 construct: purchased; host or cells: baculovirus-transfected insect cells
T2 sequence (P05177 1-516): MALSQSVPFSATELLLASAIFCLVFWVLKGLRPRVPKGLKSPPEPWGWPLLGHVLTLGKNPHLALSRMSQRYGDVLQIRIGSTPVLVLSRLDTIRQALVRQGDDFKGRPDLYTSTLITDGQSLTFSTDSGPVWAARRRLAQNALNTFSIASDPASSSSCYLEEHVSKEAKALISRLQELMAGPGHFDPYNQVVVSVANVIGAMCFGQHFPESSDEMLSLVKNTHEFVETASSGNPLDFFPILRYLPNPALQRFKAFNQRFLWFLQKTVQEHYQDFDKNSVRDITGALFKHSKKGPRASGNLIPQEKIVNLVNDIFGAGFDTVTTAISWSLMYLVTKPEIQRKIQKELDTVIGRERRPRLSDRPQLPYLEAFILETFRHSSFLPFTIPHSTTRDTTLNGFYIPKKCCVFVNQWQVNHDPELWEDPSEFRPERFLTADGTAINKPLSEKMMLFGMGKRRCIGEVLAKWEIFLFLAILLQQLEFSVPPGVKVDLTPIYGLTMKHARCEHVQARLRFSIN
Description: as §1, §2

CYP2C19 = target: T3, CYP2C19 (Homo sapiens, UniProt P33261); experiment: as above; type: in vitro ADME
T3 construct: purchased; host or cells: baculovirus-transfected insect cells
Description: as §1, §2

[2] = First-in-man single-dose escalation study, plasma PK; type: in vivo; settings: both sexes, human, po, mean
Description: The first-in-man study was a randomized, double-blind, placebo-controlled, single-dose escalation study with healthy female and male subjects aged 18-44 years. The subjects were allocated to cohorts of 8 subjects of which 6 received active treatment and 2 received placebo. Each subject received either 1 dose of tasipimidine oral solution or 1 dose of placebo oral solution during the study. The studied doses of tasipimidine were 10, 25, 50, 100, and 150 μg as oral solution.
(§3) The subjects were genotyped for CYP2D6 on screening. The translation of CYP2D6 genotype to CYP2D6 phenotype was done according to the national consensus published by the Dutch Pharmacogenetics Working Group from KNMP (https://www.knmp.nl/index.php/media/113). The subjects with CYP2D6 poor metabolizer genotype were excluded from the study. The translation of CYP2D6 genotype to activity score was done according to the CYP2D6 Allele Functionality Table of PharmGKB (https://www.pharmgkb.org/page/cyp2d6RefMaterials).
Frequent blood samples were taken through an intravenous cannula for the assessment of the concentration of tasipimidine and its metabolite 1 in plasma. The sampling times were before (0 h) and 15 min, 30 min, 45 min, 1, 1.5, 2, 3, 4, 5, 6, 8, 10, 12, 16, and 24 hours after the study treatment administration. The PK parameters were calculated from the plasma concentration-time data by noncompartmental method using the commercial Phoenix WinNonlin software version 8.3.

[3] = Physicochemical input parameters of the PBPK model; settings: input parameter of the PBPK model
Description: (§4) A physiologically based pharmacokinetic (PBPK) model was used to simulate the plasma exposure of tasipimidine in fasted healthy 30 years old males of 70 kg with different CYP2D6 phenotypes. Simulations were produced with the commercial GastroPlus® 9.8.2 software.

[4] = Caco-2 permeability (PBPK input parameter); type: in vitro ADME; settings: human, input parameter of the PBPK model
Description: as §4

[5] = Blood to plasma ratio and fraction unbound in plasma (PBPK input parameters); type: in vitro ADME; settings: human, input parameter of the PBPK model
Description: as §4

CYP2D6 [6] = target: T4, CYP2D6 (Homo sapiens, UniProt P10635); experiment: CYP2D6 kinetic parameters (PBPK input parameters); type: in vitro ADME; settings: input parameter of the PBPK model
Description: as §4

[7] = Renal clearance (PBPK input parameter); settings: human, in vivo; input parameter of the PBPK model
Description: as §4

[8] = Paroxetine co-treatment crossover PK study in healthy subjects; type: in vivo, human; settings: 10 μg oral, mean, n = 5; for AUC(0-inf) / Cmax / half-life: human, plasma; for half-life: read-out: t½ (converted)
Description: Effect of co-treatment with a strong CYP2D6 inhibitor paroxetine on the PK of tasipimidine was studied. The study was an open label, crossover study with 5 healthy female and/or male subjects aged 26-51 years. The study started with a 8 days long once daily treatment of paroxetine 20 mg tablet. On the last day of paroxetine treatment, a single 10 μg dose of tasipimidine as oral solution was administered 1 h after the paroxetine intake after an overnight fast.
as §3
Frequent blood samples were taken through an intravenous cannula for the assessment of the concentration of tasipimidine and its metabolite 1 in plasma. The sampling times were before (0 h) and 20 min, 40 min, 1, 1.5, 2, 2.5, 3, 3.5, 4, 5, 6, 8, 12, 24, 36, and 48 hours after the study treatment administration. The PK parameters were calculated from the plasma concentration-time data by noncompartmental method using the commercial Phoenix WinNonlin software version 8.3.

[9] = dogs, triggered by noise or owner departure; cited from earlier work
CYP2D6 [10] = target: T4, CYP2D6; experiment: Incubation with rhCYP2D6 Supersomes: intrinsic clearance and enzyme kinetics; type: in vitro ADME; parameters: purchased; host or cells: baculovirus-transfected insect cells
Description: as §1
(§5) Moreover, enzyme kinetics of tasipimidine metabolism was studied in rhCYP2D6.
(§6) Enzyme kinetics of tasipidimine metabolism by rhCYP2D6 was studied by incubating the test compound at 0.16, 0.41, 1, 2.6, 6.4, 16, 40 and 100 μM concentrations containing 10 pmol/ml of the CYP enzyme for 0, 5, 10, 20, and 30 min. Enzyme kinetics was estimated from CLint values measured for the test compound at different concentrations while metabolite characterisation was not performed.
(§7) The analysis for disappearance of tasipimidine and the identification of the formed metabolites were carried out by using a high-resolution liquid chromatographic-mass spectrometer supported by accurate masses (UPLC-HRMS). […]

[11] = substrate: COc1cccc2c1CCOC2C1=NCCN1; experiment: as above; type: in vitro ADME, human; settings: other: rhCYP2D6, 0.16-100 μM, 10 pmol/ml CYP
Description: as §1, §5, §6, §7

[12] = substrate: COc1cccc2c1CCOC2C1=NCCN1; experiment: CYP2D6 kinetic parameters (PBPK input parameters); type: in vitro ADME; settings: other: input parameter of the PBPK model
Description: as §4

[13] = with paroxetine 20 mg once daily for 8 days

T3 sequence (P33261 whole entry): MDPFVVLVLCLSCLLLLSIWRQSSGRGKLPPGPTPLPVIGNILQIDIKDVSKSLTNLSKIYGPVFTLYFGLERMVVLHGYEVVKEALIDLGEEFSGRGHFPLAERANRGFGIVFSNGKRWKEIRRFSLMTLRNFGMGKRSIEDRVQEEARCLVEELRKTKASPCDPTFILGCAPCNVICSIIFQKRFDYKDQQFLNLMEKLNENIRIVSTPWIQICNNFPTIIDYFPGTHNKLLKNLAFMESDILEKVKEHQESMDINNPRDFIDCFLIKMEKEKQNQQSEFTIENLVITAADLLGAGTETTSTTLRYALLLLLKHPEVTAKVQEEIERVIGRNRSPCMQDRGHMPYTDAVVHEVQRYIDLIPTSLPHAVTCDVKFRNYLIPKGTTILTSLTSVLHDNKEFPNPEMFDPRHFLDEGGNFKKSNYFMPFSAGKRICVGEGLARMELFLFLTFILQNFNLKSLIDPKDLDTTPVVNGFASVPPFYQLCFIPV

Molecule: Clc1cccc(Cl)c1N=C1NCCN1 [clonidine]
- elimination half-life (t1/2) [1]: 14 h

Molecule: COc1cccc2c1CCOC2C1=NCCN1 (stereo not drawn) [tasipimidine, 2-(5-methoxyisochroman-1-yl)-4,5-dihydro-1H-imidazole]
- contribution of enzyme to tasipimidine metabolism (CYP1A1): minor contributors
- contribution of enzyme to tasipimidine metabolism (CYP1A2): minor contributors
- contribution of enzyme to tasipimidine metabolism (CYP2C19): minor contributors
- AUC(0-inf) ([2]; 10 ug, 10 μg single oral dose, corrected by CYP2D6 genotype based activity score, n = 6, read-out: AUCinf * AS): 0.09 ng·h/mL
- AUC(0-inf) ([2]; 10 ug, 10 μg single oral solution dose, n = 6, healthy subjects, read-out: AUCinf): 0.052 ng·h/mL
- AUC(0-inf) ([2]; 25 ug, 25 μg single oral dose, corrected by CYP2D6 genotype based activity score, n = 6, read-out: AUCinf * AS): 0.254 ng·h/mL
- AUC(0-inf) ([2]; 25 ug, 25 μg single oral solution dose, n = 6, healthy subjects, read-out: AUCinf): 0.186 ng·h/mL
- AUC(0-inf) ([2]; 50 ug, 50 μg single oral dose, corrected by CYP2D6 genotype based activity score, n = 6, read-out: AUCinf * AS): 0.475 ng·h/mL
- AUC(0-inf) ([2]; 50 ug, 50 μg single oral solution dose, n = 6, healthy subjects, read-out: AUCinf): 0.36 ng·h/mL
- AUC(0-inf) ([2]; 100 ug, 100 μg single oral dose, corrected by CYP2D6 genotype based activity score, n = 6, read-out: AUCinf * AS): 1.03 ng·h/mL
- AUC(0-inf) ([2]; 100 ug, 100 μg single oral solution dose, n = 6, healthy subjects, read-out: AUCinf): 1.03 ng·h/mL
- AUC(0-inf) ([2]; 150 ug, 150 μg single oral dose, corrected by CYP2D6 genotype based activity score, n = 6, read-out: AUCinf * AS): 2.03 ng·h/mL
- AUC(0-inf) ([2]; 150 ug, 150 μg single oral solution dose, n = 6, healthy subjects, read-out: AUCinf): 1.74 ng·h/mL
- logP [3]: 1.66
- pKa [3]: 9.24
- Papp [4]: 15.4 ×10⁻⁶ cm/s
- blood plasma ratio ([5]; blood and plasma): 1.13
- fraction unbound ([5]; plasma): 0.86
- Vmax for CYP2D6 (CYP2D6 [6]): 0.000043 mg/s
- CL renal [7]: 105 mL/min
- AUCinf ratio with/without paroxetine [8]: 3.1
- Cmax ratio with/without paroxetine [8]: 1.9
- t½ ratio with/without paroxetine [8]: 1.7
- AUC(0-inf) ([8]; 10 ug, without paroxetine): 0.106 ng·h/mL
- Cmax ([8]; 10 ug, without paroxetine): 0.026 ng/mL
- half-life ([8]; 10 ug, without paroxetine): 2.6 h
- AUC(0-inf) [8, 13]: 0.281 ng·h/mL
- Cmax [8, 13]: 0.047 ng/mL
- half-life [8, 13]: 4.3 h
- relief of situational anxiety and fear [9]: effective in relieving situational anxiety and fear
- contribution of enzyme to tasipimidine metabolism (CYP2D6 [10]; CYP2D6, human in vitro systems): major enzyme
- intrinsic clearance (CLint) (CYP2D6 [10]; tasipimidine 1 μM in rhCYP2D6): 1.75 μl/min/pmol CYP

B1: rhCYP2D6 (Homo sapiens) (protein)
chain: MGLEALVPLAVIVAIFLLLVDLMHRRQRWAARYPPGPLPLPGLGNLLHVDFQNTPYCFDQLRRRFGDVFSLQLAWTPVVVLNGLAAVREALVTHGEDTADRPPVPITQILGFGPRSQGVFLARYGPAWREQRRFSVSTLRNLGLGKKSLEQWVTEEAACLCAAFANHSGRPFRPNGLLDKAVSNVIASLTCGRRFEYDDPRFLRLLDLAQEGLKEESGFLREVLNAVPVLLHIPALAGKVLRFQKAFLTQLDELLTEHRMTWDPAQPPRDLTEAFLAEMEKAKGNPESSFNDENLRIVVADLFSAGMVTTSTTLAWGLLLMILHPDVQRRVQQEIDDVIGQVRRPEMGDQAHMPYTTAVIHEVQRFGDIVPLGVTHMTSRDIEVQGFRIPKGTTLITNLSSVLKDEAVWEKPFRFHPEHFLDAQGHFVKPEAFLPFSAGRRACLGEPLARMELFLFFTSLLQHFSFSVPTGQPRPSHHGVFAFLVSPSPYELCAVPR
notes: purchased; host or cells: baculovirus-transfected insect cells
- Km [11]: 0.53 µM
- kcat [11]: 3.1 pmol/min/pmol CYP

B2: CYP2D6 (Homo sapiens) (protein)
chain: MGLEALVPLAVIVAIFLLLVDLMHRRQRWAARYPPGPLPLPGLGNLLHVDFQNTPYCFDQLRRRFGDVFSLQLAWTPVVVLNGLAAVREALVTHGEDTADRPPVPITQILGFGPRSQGVFLARYGPAWREQRRFSVSTLRNLGLGKKSLEQWVTEEAACLCAAFANHSGRPFRPNGLLDKAVSNVIASLTCGRRFEYDDPRFLRLLDLAQEGLKEESGFLREVLNAVPVLLHIPALAGKVLRFQKAFLTQLDELLTEHRMTWDPAQPPRDLTEAFLAEMEKAKGNPESSFNDENLRIVVADLFSAGMVTTSTTLAWGLLLMILHPDVQRRVQQEIDDVIGQVRRPEMGDQAHMPYTTAVIHEVQRFGDIVPLGVTHMTSRDIEVQGFRIPKGTTLITNLSSVLKDEAVWEKPFRFHPEHFLDAQGHFVKPEAFLPFSAGRRACLGEPLARMELFLFFTSLLQHFSFSVPTGQPRPSHHGVFAFLVSPSPYELCAVPR
- Km [12]: 0.106 mg/L
